Experimental data as given in US20190275049A1, “Combination of an EGFR T790M Inhibitor and a CDK Inhibitor for the Treatment of Non-Small Cell Lung Cancer” (PFIZER INC., priority 2016, published 2019).

How the values were obtained:
H1975 cell line [1] = test: H1975 duration of response study, T75 flask format; assay type: cell-based, human; conditions: for Time Elapsed: H1975, T75 flask, single agent: 100 nM palbociclib or 600 nM PF-06747775; for delay in time required to reach a specific total cell number compared to DMSO control (FIG. 1) / number of days for 5×10^5 cells to grow to 8×10^6 cells, Independent Experiment Number 1 / number of days for 5×10^5 cells to grow to 8×10^6 cells, Independent Experiment Number 2: H1975, PF-06747775 600 nM, palbociclib 100 nM, single agents or combination
Method: (§1) This experimental approach provides a model of DOR and a means for testing whether combination regimens can increase or extend DOR (Tricker E M, Xu C, Uddin S, et al. Combined EGFR/MEK Inhibition Prevents the Emergence of Resistance in EGFR-Mutant Lung Cancer. Cancer Discov 2015; 5(9):960-71). […] Two different assay formats were used to facilitate quantitative assessment of time to regrowth and to address reproducibility in orthogonal formats.
H1975 cells were seeded (5×10^5 cells per flask) in T75 flasks (one or two flasks per treatment condition). […] Time was monitored. When growth reached 70-90% confluence, the cells were harvested, counted, and half of the collected cells were used to seed a fresh T75 flask. Once growth reached 70-90% confluence again, this process was repeated, then repeated again and again until a constant growth rate was achieved. Results were plotted as total live cells counted over time, for example, at each harvest, the cell number counted at that harvest was added to previous cell count numbers, then plotted as total live cells at that time point.

Cytochrome P-450 3A4 = conditions: in vivo; cited from earlier work
H1975 cell line [2] = test: H1975 duration of response study, 96-well plate format; assay type: cell-based, human; conditions: PF-06747775 600 nM, palbociclib 100 nM, single agents or combination
Description: as §1
A 96-well plate format assay was adapted from a published report (Tricker, E., et al., “Combined EGFR/MEK Inhibition Prevents the Emergence of Resistance in EGFR-Mutant Lung Cancer,” Cancer Discovery, 2015, 960-971, vol. 5, no. 9). […] Time was monitored. […] Non-terminal reading of live cells was conducted weekly using an IncuCyte instrument (microscopy-based cell counting, Essen Bioscience, Ann Arbor, Mich., USA). At selected time points throughout the treatment duration, a terminal reading of live cells by Cell Titer Glow method (cell ATP-based counting, Promega, Madison, Wis., USA) was used to confirm cell counts over time and at the end of study. Results were plotted as percent of wells reaching a designated confluency (e.g. 50% confluent) at different time points throughout the treatment period.

HCC4006 cell line = test: HCC4006 duration of response study, T75 flask format; assay type: cell-based, human; conditions: method of Example 2 (PF-06747775 600 nM, palbociclib 100 nM)
H1975 xenograft tumors = test: H1975 xenograft model, tumor growth inhibition; assay type: in vivo, nude/nude (nu/nu) female mice; conditions: oral, daily
Description: Four- to six-week-old nude/nude (nu/nu) female mice were obtained from Charles River Laboratories (Hollister, Calif., USA) and maintained in pressurized ventilated caging at the Pfizer La Jolla animal facility. All studies were approved by Pfizer Institutional Animal Care and Use Committees. Xenograft tumors were established by subcutaneously implanting 5×10^6 H1975 cells suspended 1:1 (v/v) with reconstituted basement membrane (Matrigel, BD Biosciences) in nu/nu mice. […] Tumor dimensions were measured with vernier calipers and tumor volumes were calculated using the formula of π/6×larger diameter x (smaller diameter)^2. […] Tumor regression percentage was calculated as 100×(1−ΔT/starting tumor size).

[3] = Plasma drug levels in H1975 xenograft study (blood samples day 15)
PC9 cell line = test: PC9 duration of response study, T75 flask format; assay type: cell-based, human; conditions: method of Example 2 (PF-06747775 600 nM, palbociclib 100 nM)
HCC827 cell line = test: HCC827 duration of response study, T75 flask format; assay type: cell-based, human; conditions: method of Example 2 (PF-06747775 600 nM, palbociclib 100 nM)

Plasma Average Free Drug Concentration Over the 24 hour Dosing Interval, PF-06747775 ([3]; PF-06747775 10/20 mpk alone)	Plasma Average Free Drug Concentration Over the 24 hour Dosing Interval, Palbociclib ([3]; Palbo 7 mpk alone)	Plasma Average Free Drug Concentration Over the 24 hour Dosing Interval, Palbociclib ([3]; Palbo 22 mpk alone)	Plasma Average Free Drug Concentration Over the 24 hour Dosing Interval, Palbociclib ([3]; Palbo 70 mpk alone)	Structure (SMILES)	Time Elapsed (H1975 cell line [1])	delay in time required to reach a specific total cell number compared to DMSO control (FIG. 1) (H1975 cell line [1])	number of days for 5×10^5 cells to grow to 8×10^6 cells, Independent Experiment Number 1 (H1975 cell line [1])	number of days for 5×10^5 cells to grow to 8×10^6 cells, Independent Experiment Number 2 (H1975 cell line [1])	metabolism by Cytochrome P-450 3A4 (Cytochrome P-450 3A4)	number of days for 350 cells per well to grow to 50% of the wells reaching 50% confluence, Independent Experiment Number 1 (H1975 cell line [2])	number of days for 350 cells per well to grow to 50% of the wells reaching 50% confluence, Independent Experiment Number 2 (H1975 cell line [2])	HCC4006 Time elapsed (days) for 5×10^5 cells to grow to 8×10^6 cells (HCC4006 cell line)	anti-tumor efficacy of single agent after 10 days of dosing (H1975 xenograft tumors; PF-06747775 10 mpk, 10 days)	effect on tumor growth inhibition (TGI) (FIG. 2) (H1975 xenograft tumors; PF-06747775 single agent, 10/20 mpk (20 mpk from day 11))	PC9 Time elapsed (days) for 5×10^5 cells to grow to 8×10^6 cells (PC9 cell line)	effect on tumor growth inhibition (TGI) (FIG. 2) (H1975 xenograft tumors; palbociclib single agent, 70 mpk)	effect on tumor growth inhibition (TGI) (FIG. 2) (H1975 xenograft tumors; palbociclib single agent, lower doses (22 mpk and 7 mpk))	HCC827 (independent experiment) Number 1 (days) for 5×10^5 cells to grow to 8×10^6 cells (HCC827 cell line)	HCC827 (independent experiment) Number 2 (days) for 5×10^5 cells to grow to 8×10^6 cells (HCC827 cell line)
95 nM				C=CC(=O)N[C@@H]1CN(c2nc(Nc3cn(C)nc3OC)c3ncn(C)c3n2)C[C@H]1F [PF-06747775, N-((3R,4R)-4-fluoro-1-(6-((3-methoxy-1-methyl-1H-pyrazol-4-yl)amino)-9-methyl-9H-purin-2-yl)pyrrolidin-3-yl)acrylamide]	21 days	significant delay	15 days	21 days	metabolized in vivo by this same enzyme	16 days	19 days	51 days	less than the desired comparator level	moderate effect	73 days				
	6 nM	45 nM	127 nM	CC(=O)c1c(C)c2cnc(Nc3ccc(N4CCNCC4)cn3)nc2n(C2CCCC2)c1=O [palbociclib, 6-acetyl-8-cyclopentyl-5-methyl-2-(5-piperazin-1-yl-pyridin-2-ylamino)-8H-pyrido[2,3-d]pyrimidin-7-one]	5 days	slight delay, if any	4 days	5 days		7 days	7 days	18 days			5 days	minor effect	no effect	11 days	11 days
